System: NCI-H929 complex spheroids, viability % test/control
Experiment: Anticancer human tumor NCI-H929 cell line growth inhibition [RAS];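 further: compound exposure lasted seven days before viability was read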;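 on viability, T/C: 100% = DMSO vehicle control viability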
Settings: for IC50: curve of first compound; for viability, T/C: stronger effect = lower value
Summary of the method: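 Agents were tested in combination matrices in half-log decrements from a top concentration at or near clinical Cmax (10 microM if undetermined). Targets were multi-cell spheroids of tumour lines plus HUVEC and MSC stromal cells.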

`CCc1c2c(nc3ccc(O)cc13)-c1cc3c(c(=O)n1C2)COC(=O)[C@]3(O)CC` + C=CC(=O)N1CCN(c2nc(OCC3CCCN3C)nc3c(F)c(-c4nc(N)cc(C)c4C(F)(F)F)c(Cl)cc23)C(C)C1 gave an IC50 (second compound 0.00316 µM) of 1.85 nM, an IC50 (second compound 0.01 µM) of 1.94 nM and an IC50 (second compound 0.0316 µM) of 1.99 nM. For the same compound, the IC50 (second compound 0.1 µM) was 1.99 nM, the IC50 (second compound 0.316 µM) was 2.03 nM and the IC50 (second compound 1 µM) was 1.94 nM. For the same compound, the viability, T/C (second compound 0.00316 µM, first compound 0.000949 µM) was 106%, the viability, T/C (second compound 0.00316 µM, first compound 0.003 µM) was 9.93% and the viability, T/C (second compound 0.00316 µM, first compound 0.00949 µM) was 1.39%. The viability, T/C (second compound 0.00316 µM, first compound 0.03 µM) was 1.87%, the viability, T/C (second compound 0.00316 µM, first compound 0.0949 µM) was 2.37% and the viability, T/C (second compound 0.00316 µM, first compound 0.3 µM) was 1.53%. For the same compound, the viability, T/C (second compound 0.01 µM, first compound 0.000949 µM) was 101%, the viability, T/C (second compound 0.01 µM, first compound 0.003 µM) was 18.9% and the viability, T/C (second compound 0.01 µM, first compound 0.00949 µM) was 2.06%. It also gave a viability, T/C (second compound 0.01 µM, first compound 0.03 µM) of 3.03%, a viability, T/C (second compound 0.01 µM, first compound 0.0949 µM) of 2.18% and a viability, T/C (second compound 0.01 µM, first compound 0.3 µM) of 1.15%. It also gave a viability, T/C (second compound 0.0316 µM, first compound 0.000949 µM) of 103%, a viability, T/C (second compound 0.0316 µM, first compound 0.003 µM) of 20.9% and a viability, T/C (second compound 0.0316 µM, first compound 0.00949 µM) of 1.84%. The viability, T/C (second compound 0.0316 µM, first compound 0.03 µM) was 2.69%, the viability, T/C (second compound 0.0316 µM, first compound 0.0949 µM) was 2.18% and the viability, T/C (second compound 0.0316 µM, first compound 0.3 µM) was 0.6%. For the same compound, the viability, T/C (second compound 0.1 µM, first compound 0.000949 µM) was 104%, the viability, T/C (second compound 0.1 µM, first compound 0.003 µM) was 19.8% and the viability, T/C (second compound 0.1 µM, first compound 0.00949 µM) was 1.52%. It also gave a viability, T/C (second compound 0.1 µM, first compound 0.03 µM) of 1.4%, a viability, T/C (second compound 0.1 µM, first compound 0.0949 µM) of 1.53% and a viability, T/C (second compound 0.1 µM, first compound 0.3 µM) of 0.65%. The viability, T/C (second compound 0.316 µM, first compound 0.000949 µM) was 107%, the viability, T/C (second compound 0.316 µM, first compound 0.003 µM) was 20.4% and the viability, T/C (second compound 0.316 µM, first compound 0.00949 µM) was 1.92%. For the same compound, the viability, T/C (second compound 0.316 µM, first compound 0.03 µM) was 2.44%, the viability, T/C (second compound 0.316 µM, first compound 0.0949 µM) was 1.37% and the viability, T/C (second compound 0.316 µM, first compound 0.3 µM) was 0.74%. The viability, T/C (second compound 1 µM, first compound 0.000949 µM) was 116%, the viability, T/C (second compound 1 µM, first compound 0.003 µM) was 9.86% and the viability, T/C (second compound 1 µM, first compound 0.00949 µM) was 2.04%. It also gave a viability, T/C (second compound 1 µM, first compound 0.03 µM) of 2.87%, a viability, T/C (second compound 1 µM, first compound 0.0949 µM) of 1.52% and a viability, T/C (second compound 1 µM, first compound 0.3 µM) of 0.6%.

— PubChem BioAssay AID2060884 (Molecular Pharmacology Branch, DTP, NCI, 2025)
